Results reported in the NIST ThermoML archive (doi:10.1021/acs.jced.7b00372).
Several values for one entry are separate records, joined by “and”; a condition that tells them apart may be missing. Equal entries are not always repeated. Numbers after ± are expanded uncertainties. Each block holds one compound with its values, some of them ahead of it.

What was measured:
[1] = refractive index (Na D-line) (dimensionless); details: 93 kPa, Liquid, Standard Abbe refractometry
[2] = Liquid, Ebulliometric method (Recirculating still)
[3] = refractive index (Na D-line) (dimensionless); xn = mol fraction of the nth substance listed; details: 293.15 K, 93 kPa, Liquid, Standard Abbe refractometry

Structure (SMILES): Cc1ccccc1C [1,2-dimethylbenzene]
refractive index ([1]; 293.15 K): 1.5048 ± 0.0004
refractive index ([1]; 298.15 K): 1.5022 ± 0.0004
vapor or sublimation pressure ([2]; 414.41 K): 93.13 ± 0.96 kPa

Structure (SMILES): Cc1ccccc1C [1,2-dimethylbenzene] + COC(=O)OC
refractive index ([3]; x1 = 0.045): 1.377 ± 0.0005
refractive index ([3]; x1 = 0.1564): 1.3961 ± 0.0005
refractive index ([3]; x1 = 0.1622): 1.3969 ± 0.0005
refractive index ([3]; x1 = 0.2752): 1.4149 ± 0.0005
refractive index ([3]; x1 = 0.36): 1.4272 ± 0.0005
refractive index ([3]; x1 = 0.4516): 1.4397 ± 0.0005
refractive index ([3]; x1 = 0.5655): 1.4556 ± 0.0005
refractive index ([3]; x1 = 0.603): 1.4601 ± 0.0005
refractive index ([3]; x1 = 0.7134): 1.4734 ± 0.0005
refractive index ([3]; x1 = 0.7602): 1.4795 ± 0.0005
refractive index ([3]; x1 = 0.8813): 1.493 ± 0.0005
refractive index ([3]; x1 = 0.9276): 1.4973 ± 0.0005
refractive index ([3]; x1 = 1): 1.5048 ± 0.0004

Structure (SMILES): Cc1cccc(C)c1 [1,3-dimethylbenzene]
refractive index ([1]; 293.15 K): 1.497 ± 0.0004
refractive index ([1]; 298.15 K): 1.4943 ± 0.0004
vapor or sublimation pressure ([2]; 409.13 K): 93.13 ± 0.96 kPa

Structure (SMILES): Cc1cccc(C)c1 [1,3-dimethylbenzene] + COC(=O)OC
refractive index ([3]; x1 = 0.0467): 1.3769 ± 0.0005
refractive index ([3]; x1 = 0.0871): 1.3836 ± 0.0005
refractive index ([3]; x1 = 0.1737): 1.3973 ± 0.0005
refractive index ([3]; x1 = 0.2042): 1.4021 ± 0.0005
refractive index ([3]; x1 = 0.2593): 1.4101 ± 0.0005
refractive index ([3]; x1 = 0.3033): 1.4167 ± 0.0005
refractive index ([3]; x1 = 0.3719): 1.4262 ± 0.0005
refractive index ([3]; x1 = 0.4455): 1.4359 ± 0.0005
refractive index ([3]; x1 = 0.4709): 1.439 ± 0.0005
refractive index ([3]; x1 = 0.5421): 1.4481 ± 0.0005
refractive index ([3]; x1 = 0.6549): 1.4612 ± 0.0005
refractive index ([3]; x1 = 0.7672): 1.4738 ± 0.0005
refractive index ([3]; x1 = 0.8662): 1.4839 ± 0.0005
refractive index ([3]; x1 = 0.94): 1.4913 ± 0.0005
refractive index ([3]; x1 = 1): 1.497 ± 0.0004

Structure (SMILES): Cc1ccc(C)cc1 [1,4-dimethylbenzene]
refractive index ([1]; 293.15 K): 1.4956 ± 0.0004
refractive index ([1]; 298.15 K): 1.4929 ± 0.0004
vapor or sublimation pressure ([2]; 408.37 K): 93.13 ± 0.96 kPa

Structure (SMILES): Cc1ccc(C)cc1 [1,4-dimethylbenzene] + COC(=O)OC
refractive index ([3]; x1 = 0.0368): 1.3752 ± 0.0005
refractive index ([3]; x1 = 0.0866): 1.3835 ± 0.0005
refractive index ([3]; x1 = 0.157): 1.3946 ± 0.0005
refractive index ([3]; x1 = 0.2639): 1.4106 ± 0.0005
refractive index ([3]; x1 = 0.3598): 1.4241 ± 0.0005
refractive index ([3]; x1 = 0.4244): 1.4326 ± 0.0005
refractive index ([3]; x1 = 0.5293): 1.4457 ± 0.0005
refractive index ([3]; x1 = 0.6397): 1.4586 ± 0.0005
refractive index ([3]; x1 = 0.7655): 1.4724 ± 0.0005
refractive index ([3]; x1 = 0.8832): 1.4848 ± 0.0005
refractive index ([3]; x1 = 0.938): 1.4898 ± 0.0005
refractive index ([3]; x1 = 1): 1.4956 ± 0.0004

Structure (SMILES): COC(=O)OC [dimethyl carbonate]
refractive index ([1]; 293.15 K): 1.3687 ± 0.0004 and 1.3688 ± 0.0004
refractive index ([1]; 298.15 K): 1.3664 ± 0.0004
vapor or sublimation pressure ([2]; 360.73 K): 93.13 ± 0.96 kPa

Structure (SMILES): COC(=O)OC [dimethyl carbonate] + CCc1ccccc1
refractive index ([3]; x2 = 0): 1.3688 ± 0.0004

Structure (SMILES): COC(=O)OC [dimethyl carbonate] + Cc1ccc(C)cc1
refractive index ([3]; x2 = 0): 1.3687 ± 0.0004

Structure (SMILES): COC(=O)OC [dimethyl carbonate] + Cc1cccc(C)c1
refractive index ([3]; x2 = 0): 1.3688 ± 0.0004

Structure (SMILES): COC(=O)OC [dimethyl carbonate] + Cc1ccccc1C
refractive index ([3]; x2 = 0): 1.3688 ± 0.0004

refractive index ([1]; 293.15 K): 1.4956 ± 0.0004
refractive index ([1]; 298.15 K): 1.493 ± 0.0004
vapor or sublimation pressure ([2]; 406.23 K): 93.13 ± 0.96 kPa
Structure (SMILES): CCc1ccccc1 [ethylbenzene]

refractive index ([3]; x1 = 0.0462): 1.3767 ± 0.0005
refractive index ([3]; x1 = 0.089): 1.3836 ± 0.0005
refractive index ([3]; x1 = 0.1753): 1.397 ± 0.0005
refractive index ([3]; x1 = 0.2701): 1.4109 ± 0.0005
refractive index ([3]; x1 = 0.3564): 1.4232 ± 0.0005
refractive index ([3]; x1 = 0.4359): 1.4335 ± 0.0006
refractive index ([3]; x1 = 0.4448): 1.4352 ± 0.0005
refractive index ([3]; x1 = 0.468): 1.4382 ± 0.0005
refractive index ([3]; x1 = 0.5157): 1.4441 ± 0.0005
refractive index ([3]; x1 = 0.5825): 1.4527 ± 0.0005
refractive index ([3]; x1 = 0.6639): 1.4617 ± 0.0005
refractive index ([3]; x1 = 0.7377): 1.4702 ± 0.0005
refractive index ([3]; x1 = 0.852): 1.4815 ± 0.0005
refractive index ([3]; x1 = 0.8827): 1.4847 ± 0.0005
refractive index ([3]; x1 = 0.9124): 1.4873 ± 0.0005
refractive index ([3]; x1 = 0.9395): 1.49 ± 0.0005
refractive index ([3]; x1 = 1): 1.4956 ± 0.0004
Structure (SMILES): CCc1ccccc1 [ethylbenzene] + COC(=O)OC
